In the experiment the target is Acetylcholinesterase (Homo sapiens, UniProt P22303). As to the kind of experiment: Inhibition of human acetylcholinesterase using ATCI/DTNB as substrate preincubated for 30 mins followed by substrate addition measured for 60 mins by Ellman method. (DTNB colorimetry detects thiols as they appear.)
Chain of Acetylcholinesterase (P22303 whole entry): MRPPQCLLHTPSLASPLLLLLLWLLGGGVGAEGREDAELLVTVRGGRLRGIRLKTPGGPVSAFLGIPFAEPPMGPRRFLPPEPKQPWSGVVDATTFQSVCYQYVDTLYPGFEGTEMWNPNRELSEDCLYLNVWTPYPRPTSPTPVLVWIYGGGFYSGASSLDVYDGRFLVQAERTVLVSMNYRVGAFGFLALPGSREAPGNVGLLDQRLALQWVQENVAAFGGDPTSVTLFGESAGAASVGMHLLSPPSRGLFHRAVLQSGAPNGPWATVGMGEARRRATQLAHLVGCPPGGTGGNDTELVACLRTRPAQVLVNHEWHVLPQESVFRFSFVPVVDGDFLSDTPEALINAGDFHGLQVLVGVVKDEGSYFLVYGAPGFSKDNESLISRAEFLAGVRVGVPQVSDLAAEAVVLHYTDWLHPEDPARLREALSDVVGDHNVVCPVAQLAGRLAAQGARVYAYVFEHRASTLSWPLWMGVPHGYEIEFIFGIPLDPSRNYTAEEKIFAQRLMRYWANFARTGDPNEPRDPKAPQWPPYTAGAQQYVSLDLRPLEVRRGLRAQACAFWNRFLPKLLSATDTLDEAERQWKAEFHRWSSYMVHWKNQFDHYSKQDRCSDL

Take `CCOC(=O)C1=C(Nc2ccccc2)C[C@@H](c2ccccc2)N(c2ccccc2)[C@@H]1c1ccccc1`: the IC50 (read-out: pIC50 (converted)) was 2.95 µM.
As to `COC(=O)C1=C(Nc2ccccc2)C[C@@H](c2ccccc2)N(c2ccccc2)[C@@H]1c1ccccc1`, the IC50 (read-out: pIC50 (converted)) is 6.52 µM.
For the molecule `COC(=O)C1=C(Nc2ccccc2)C[C@@H](c2ccc(C)cc2)N(c2ccccc2)[C@@H]1c1ccc(C)cc1`, the IC50 (read-out: pIC50 (converted)) is 5.73 µM.
As to `CCOC(=O)C1=C(Nc2ccccc2)C[C@@H](c2ccc(C)cc2)N(c2ccccc2)[C@@H]1c1ccc(C)cc1`, the IC50 (read-out: pIC50 (converted)) is 5.58 µM.
On the same count and under the same terms, to `COC(=O)C1=C(Nc2ccc(C)cc2)C[C@@H](c2ccc(C)cc2)N(c2ccc(C)cc2)[C@@H]1c1ccc(C)cc1` belongs 6.78 µM; to `COC(=O)C1=C(Nc2ccc(Br)cc2)C[C@@H](c2ccc(C)cc2)N(c2ccc(Br)cc2)[C@@H]1c1ccc(C)cc1`, 2.48 µM.
Take `COC(=O)C1=C(Nc2ccc(Cl)cc2)C[C@@H](c2ccc(C)cc2)N(c2ccc(Cl)cc2)[C@@H]1c1ccc(C)cc1`: the IC50 (read-out: pIC50 (converted)) was 2.15 µM.
For the molecule `COC(=O)C1=C(Nc2ccc(OC)cc2)C[C@@H](c2ccc(C)cc2)N(c2ccc(OC)cc2)[C@@H]1c1ccc(C)cc1`, the IC50 (read-out: pIC50 (converted)) is 5.83 µM.
On to `CCOC(=O)C1=C(Nc2ccc(OC)cc2)C[C@@H](c2ccc(C)cc2)N(c2ccc(OC)cc2)[C@@H]1c1ccc(C)cc1`, for which the IC50 (read-out: pIC50 (converted)) was 4.98 µM.
In the case of `CCOC(=O)C1=C(Nc2ccc(OC)cc2)C[C@@H](c2ccccc2)N(c2ccc(OC)cc2)[C@@H]1c1ccccc1`, where the note is “read-out: pIC50 (converted)”, the IC50 was 2.25 µM.
Same read-out and setting: then `CCOC(=O)C1=C(Nc2ccc(Cl)cc2)C[C@@H](c2ccccc2)N(c2ccc(Cl)cc2)[C@@H]1c1ccccc1`, with 4.6 µM; and `CCOC(=O)C1=C(Nc2ccc(C)cc2)C[C@@H](c2ccccc2)N(c2ccc(C)cc2)[C@@H]1c1ccccc1`, with 5.18 µM.
In the case of `COC(=O)C1=C(Nc2ccc(F)cc2)C[C@@H](c2ccccc2)N(c2ccc(F)cc2)[C@@H]1c1ccccc1`, the IC50 (read-out: pIC50 (converted)) is 15.1 µM.
Turning to `CCOC(=O)C1=C(Nc2ccc(F)cc2)C[C@@H](c2ccc(Cl)cc2)N(c2ccc(F)cc2)[C@@H]1c1ccc(Cl)cc1`, the IC50 (read-out: pIC50 (converted)) is 0.55 µM.
For `CCOC(=O)C1=C(Nc2ccccc2)C[C@@H](c2ccc(F)cc2)N(c2ccccc2)[C@@H]1c1ccc(F)cc1`, the IC50 (read-out: pIC50 (converted)) is 0.39 µM.
For `COC(=O)C1=C(Nc2ccc(F)cc2)C[C@@H](c2ccc(F)cc2)N(c2ccc(F)cc2)[C@@H]1c1ccc(F)cc1`, under “read-out: pIC50 (converted)”, the IC50 is 3.2 µM.
For `COC(=O)C1=C(Nc2ccc(Cl)cc2)C[C@@H](c2ccc(F)cc2)N(c2ccc(Cl)cc2)[C@@H]1c1ccc(F)cc1`, the IC50 (read-out: pIC50 (converted)) is 0.71 µM.
For the molecule `CC(C)(C)OC(=O)C1=C(Nc2ccccc2)C[C@@H](c2ccccc2)N(c2ccccc2)[C@@H]1c1ccccc1`, the IC50 (read-out: pIC50 (converted)) is 2.79 µM.
Take `COC(=O)C1=C(Nc2ccccc2)C[C@@H](c2ccc(Cl)cc2)N(c2ccccc2)[C@@H]1c1ccc(Cl)cc1`: the IC50 (read-out: pIC50 (converted)) is 0.879 µM.
Take `CCOC(=O)C1=C(Nc2ccc(C)cc2)C[C@@H](c2ccc(Cl)cc2)N(c2ccc(C)cc2)[C@@H]1c1ccc(Cl)cc1`: the IC50 (read-out: pIC50 (converted)) is 5.4 µM.
For the molecule `COC(=O)C1=C(Nc2ccc(Br)cc2)C[C@@H](c2ccc(Cl)cc2)N(c2ccc(Br)cc2)[C@@H]1c1ccc(Cl)cc1`, where the note is “read-out: pIC50 (converted)”, the IC50 is 0.879 µM.
Turning to `COC(=O)C1=C(Nc2ccc(Br)cc2)C[C@@H](c2ccc(OC)cc2)N(c2ccc(Br)cc2)[C@@H]1c1ccc(OC)cc1`, the IC50 (read-out: pIC50 (converted)) was 2.16 µM.
The same measure, in the same setting: then `CCOC(=O)C1=C(Nc2ccc(Cl)cc2)C[C@@H](c2ccc(OC)cc2)N(c2ccc(Cl)cc2)[C@@H]1c1ccc(OC)cc1`, with 0.38 µM.
In the case of `COC(=O)C1=C(Nc2ccccc2)C[C@@H](c2ccccc2[N+](=O)[O-])N(c2ccccc2)[C@@H]1c1ccccc1[N+](=O)[O-]`, the IC50 result is recorded as “Not Active”.
With `COC(=O)C1=C(Nc2ccccc2)C[C@@H](c2ccc3c(c2)OCO3)N(c2ccccc2)[C@@H]1c1ccc2c(c1)OCO2`, the IC50 is, setting by setting: (read-out: IC50) 3270 µM; (read-out: pIC50 (converted)) 0.511 µM.
